Values of other authors, collected in US7847105B2, “Methods and compounds for preparing CC-1065 analogs” (Medarex, Inc., priority 2005, dated 2010).

Experiments:
[1] = both in vitro and in experimental animals
experimental animals = details: reason why it cannot be used in humans

CC-1065
antitumor and antimicrobial activity [1]: potent antitumor and antimicrobial activity
toxicity in experimental animals (experimental animals): causes delayed death
